What was measured:
[1] = molecular target: T1, mouse ERα receptor (mERα) (Mus musculus, UniProt P19785); assay: Luciferase reporter assay: transactivation of (ERE)-TK-Luc by ERα in COS cells; format: cell-based; details: for activation of ERα (in words): compound alone, 7HD at similar concentration as for ERβ, ICI 182, 780 at 1 μM
T1 construct: expressed in transfected cells; host or cells: COS (COS-1)
T1 sequence (P19785 1-599): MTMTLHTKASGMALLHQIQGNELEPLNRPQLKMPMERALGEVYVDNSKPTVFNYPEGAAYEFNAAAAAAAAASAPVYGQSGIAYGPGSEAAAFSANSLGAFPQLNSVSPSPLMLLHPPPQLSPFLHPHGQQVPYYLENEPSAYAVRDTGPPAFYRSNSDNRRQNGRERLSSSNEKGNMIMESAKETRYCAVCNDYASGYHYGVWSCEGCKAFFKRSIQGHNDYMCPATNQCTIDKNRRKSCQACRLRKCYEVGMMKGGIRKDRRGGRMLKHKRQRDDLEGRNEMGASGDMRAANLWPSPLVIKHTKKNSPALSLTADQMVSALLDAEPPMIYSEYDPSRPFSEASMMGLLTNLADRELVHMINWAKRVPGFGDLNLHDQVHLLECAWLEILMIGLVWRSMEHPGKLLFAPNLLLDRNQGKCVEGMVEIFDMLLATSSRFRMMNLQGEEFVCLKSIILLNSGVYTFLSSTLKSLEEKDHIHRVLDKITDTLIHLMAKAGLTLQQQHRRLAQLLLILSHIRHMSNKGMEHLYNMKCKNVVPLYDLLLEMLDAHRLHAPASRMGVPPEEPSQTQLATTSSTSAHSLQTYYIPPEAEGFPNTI
Procedure: (§1) Values shown are means (±S.E.M.) of 3 to 5 independent experiments each carried out in triplicate.
(§2) COS-1 cells and HepG2 cells were maintained in high glucose Dulbecco's minimum essential medium (DMEM) containing penicillin (25 units/ml), streptomycin (25 μg/ml), and 10% fetal calf serum (v/v). Cells were seeded at a density of 5×10^5 cells/dish and left to adhere overnight. On the day of the transfection, the medium was replaced with DMEM lacking phenol red supplemented with 10% DCC-FCS (v/v). Transfections were carried out using the calcium phosphate procedure according to standard protocols with 10 μg DNA ([…] expression plasmid, 1-5 μg reporter plasmid, 1 μg pCH110 encoding β-galactosidase used as internal control (Pharmacia) and 3-7 μg pGEM3). Expession plasmid were: the mouse ERα receptor (mERα gift from Prof. M. Parker, London U.K. (31)), human ERβ. receptor (hERβ; from Dr R. White, London U.K. (32)) and human androgen receptor (pSVARo; Prof. A. Brinkman, Rotterdam Holand). […] Reporter plasmids were: (ERE)-TK-Luc (gift From Dr V. Giguere, Montreal, Canada) for estrogen responsivity and PSA (PSA61-luc, Prof. J. Trapman, Rotterdam Holland) for androgen responsivity. […] Following cell lysis, luciferase and β-galactosidase activities were measured as described (33). Data are expressed as relative luciferase/β-galactosidase and are means±S.E.M. from at least three independent experiments.
(§3) Both COS-1 cells and HepG2 cells were used and both these cell lines require exogenous AR, ERα and ERβ to activate androgen (PSA) or estrogen (ERE) responsive reporter genes.

[2] = molecular target: T2, human ERβ receptor (hERβ) (Homo sapiens, UniProt Q92731); assay: Luciferase reporter assay: transactivation of (ERE)-TK-Luc by ERβ in HepG2 cells; format: cell-based
T2 construct: expressed in transfected cells; host or cells: HepG2
T2 sequence (Q92731 whole entry): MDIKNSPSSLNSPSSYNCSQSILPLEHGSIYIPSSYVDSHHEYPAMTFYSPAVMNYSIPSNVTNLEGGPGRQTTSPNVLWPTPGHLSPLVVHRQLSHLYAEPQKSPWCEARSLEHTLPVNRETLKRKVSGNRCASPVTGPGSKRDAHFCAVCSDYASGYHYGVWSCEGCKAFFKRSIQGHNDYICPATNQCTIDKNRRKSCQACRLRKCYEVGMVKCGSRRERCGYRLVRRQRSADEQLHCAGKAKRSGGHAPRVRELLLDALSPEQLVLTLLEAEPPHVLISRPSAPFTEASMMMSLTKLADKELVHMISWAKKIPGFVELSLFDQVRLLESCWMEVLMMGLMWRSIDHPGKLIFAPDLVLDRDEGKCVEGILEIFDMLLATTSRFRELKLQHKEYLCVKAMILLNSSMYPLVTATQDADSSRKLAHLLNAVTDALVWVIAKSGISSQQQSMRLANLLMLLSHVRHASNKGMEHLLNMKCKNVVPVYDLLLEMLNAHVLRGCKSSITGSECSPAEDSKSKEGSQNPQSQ
Procedure: as §1, §2, §3

human ERβ receptor = molecular target: T3, human ERβ receptor (Homo sapiens, UniProt Q92731); assay: Ligand-competition study: [3H]-E2 binding to in vitro synthesised ERβ protein; details: 7HD 0-250 μM, 16 h, reticulocyte lysate
T3 construct: made in house; host or cells: cell-free: TnT-coupled reticulocyte lysate system (Promega)
T3 sequence (Q92731 whole entry): as above
Procedure: Reticulocyte lysate containing ERβ protein was equilibrated for 16 h with […] [3H]-E2 and the indicated fold excess of 7HD. Data represent [3H]-E2 bound in presence of 7HD (0-250 μM). [3H]-E2 binding in the absence of 7HD was set at 100%. *, p<0.001 and γ, p<0.01; 7HD vs control without 7HD.
Human ERβ clone was synthesised in vitro using the TnT-coupled reticulocyte lysate system following manufacturer instructions (Promega, Southampton, U.K.). Translation reaction mixtures were diluted five times with TEDGMo buffer (40 mM Tris/Hcl, pH 7.4/1 mM EDTA/10% (vol/vol) glycerol/10 mMNa2MoO4/10 mM DTT) and 0.1 ml aliquots were incubated for 16 h at 4° C. with 0.5 nM [2,4,6,7-^3H]4-E2 (specific radioactivity 89 Ci/mmol) in presence of either 0, 1, 5, 10, 20, 50 and 250 μM of 7HD. Bound and unbound steroids were separated by filtration.
The ability of 7HD to inhibit [^3H]-E2 binding was also measured by a competition binding assay using human ERβ receptor synthesised in vitro from our human ERβ clone (hERβ) using a TnT-coupled reticulocyte lysate system (FIG. 7). In our competition study, 7HD interacted with ERβ receptor and inhibited [^3H]-E2 binding dose-dependently.

[3] = molecular target: T4, human androgen receptor (hAR) (Homo sapiens, UniProt P10275); assay: Luciferase reporter assay: transactivation of PSA-Luc reporter in COS-1 cells containing hAR; format: cell-based
T4 construct: expressed in transfected cells; host or cells: COS-1
T4 sequence (P10275 1-920): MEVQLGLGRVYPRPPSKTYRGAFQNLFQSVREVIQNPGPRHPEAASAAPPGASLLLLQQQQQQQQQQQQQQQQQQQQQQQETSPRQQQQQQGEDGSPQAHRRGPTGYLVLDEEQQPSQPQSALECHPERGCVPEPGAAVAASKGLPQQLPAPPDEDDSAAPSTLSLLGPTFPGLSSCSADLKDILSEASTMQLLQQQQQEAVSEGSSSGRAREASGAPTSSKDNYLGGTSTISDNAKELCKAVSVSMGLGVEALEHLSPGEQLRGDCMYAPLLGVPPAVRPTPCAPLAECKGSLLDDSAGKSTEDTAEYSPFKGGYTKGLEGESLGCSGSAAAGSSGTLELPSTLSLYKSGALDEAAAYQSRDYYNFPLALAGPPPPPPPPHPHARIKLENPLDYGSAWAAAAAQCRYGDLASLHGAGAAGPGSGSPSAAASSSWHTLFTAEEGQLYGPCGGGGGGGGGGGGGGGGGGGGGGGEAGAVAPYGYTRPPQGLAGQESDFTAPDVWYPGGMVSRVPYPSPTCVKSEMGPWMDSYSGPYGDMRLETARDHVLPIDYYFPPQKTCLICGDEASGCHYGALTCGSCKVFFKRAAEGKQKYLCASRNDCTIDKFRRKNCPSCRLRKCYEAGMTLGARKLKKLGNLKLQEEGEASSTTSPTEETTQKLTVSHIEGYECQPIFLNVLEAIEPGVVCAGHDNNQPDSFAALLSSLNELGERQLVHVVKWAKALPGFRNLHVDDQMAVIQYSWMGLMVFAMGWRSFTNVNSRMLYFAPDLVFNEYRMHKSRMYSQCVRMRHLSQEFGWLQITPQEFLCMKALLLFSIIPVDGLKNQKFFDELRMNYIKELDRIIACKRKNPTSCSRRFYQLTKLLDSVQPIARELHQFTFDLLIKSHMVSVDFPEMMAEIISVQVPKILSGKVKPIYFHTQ
Procedure: as §1
COS-1 cells and HepG2 cells were maintained in high glucose Dulbecco's minimum essential medium (DMEM) containing penicillin (25 units/ml), streptomycin (25 μg/ml), and 10% fetal calf serum (v/v). Cells were seeded at a density of 5×10^5 cells/dish and left to adhere overnight. On the day of the transfection, the medium was replaced with DMEM lacking phenol red supplemented with 10% DCC-FCS (v/v). Transfections were carried out using the calcium phosphate procedure according to standard protocols with 10 μg DNA ([…] expression plasmid, 1-5 μg reporter plasmid, 1 μg pCH110 encoding β-galactosidase used as internal control (Pharmacia) and 3-7 μg pGEM3). Expession plasmid were: the mouse ERα receptor (mERα gift from Prof. M. Parker, London U.K. (31)), human ERβ. receptor (hERβ; from Dr R. White, London U.K. (32)) and human androgen receptor (pSVARo; Prof. A. Brinkman, Rotterdam Holand). […] Following cell lysis, luciferase and β-galactosidase activities were measured as described (33). Data are expressed as relative luciferase/β-galactosidase and are means±S.E.M. from at least three independent experiments. […]

3β-HSD = assay: Production of A/anedione from DHEA in human prostate chips (TLC); format: biochemical; details: 1 μM trilostane
[4] = system: whole human prostate chips; assay: DHEA metabolism in whole human prostate chips, metabolites analysed by HPLC; format: in vitro ADME

C[C@]12CC[C@@H]3c4ccc(O)cc4C[C@@H](CCCCCCCCC[S+]([O-])CCCC(F)(F)C(F)(F)F)[C@H]3[C@@H]1CC[C@@H]2O (some centres unmarked) [ICI 182, 780]
effect on E2 and 7HD-induced transcription of luciferase, ERα co-transfected cells ([1]; 1 μM): completely abolished | activation of ERα (in words) [1]: could not stimulate

C[C@]12CC[C@H](O)CC1=C[C@@H](O)[C@@H]1[C@@H]2CC[C@]2(C)C(=O)CC[C@@H]12 [7HD, 7α-hydroxyDHEA]
activation of ERα (in words) [1]: minimal, non-specific activation | EC50 ([2]; (ERE)-TK-Luc, HepG2 cells, read-out: EC50 of activation of ERβ-mediated transcription): 6.2 µM | transcriptional effect combined with sub-minimal dose of E2 ([2]; E2 0.1 nM, p<0.01): additive | activation of ERβ-mediated transcription (in words) ([2]; compound alone, ICI 182, 780 at 1 μM): significantly activated | inhibition of [3H]-E2 binding to ERβ (human ERβ receptor): dose-dependently | activation of androgen receptor dependent transcription of PSA-luciferase reporter (in words) [3]: unable to activate

C[C@]12CC[C@H]3[C@@H](CC[C@@]45O[C@@H]4C(O)=C(C#N)C[C@]35C)[C@@H]1CC[C@@H]2O [Trilostane]
effect on production of A/anedione (3β-HSD): successfully blocked

C[C@]12CC[C@H](O)CC1=CC[C@@H]1[C@@H]2CC[C@]2(C)C(=O)CC[C@@H]12 [DHEA, dehydroepiandosterone]
share of DHEA metabolites that represent A/enetriol [4]: 9% | share of DHEA metabolites that were products of 3β-HSD and 17β-HSD [4]: 37%
